Reference: patent US10780092B2, “Fused pyrazine derivatives useful as soluble guanylate cyclase stimulators” (Merck Sharp & Dohme Corp., priority 2016, dated 2020)

Legend:
[1] = target: human recombinant sGC enzyme (Homo sapiens (Human), UniProt Q02108+Q02153); assay: SEC competition binding assay with [3H] Compound B radioligand; conditions: displacement of 1.6 nM [3H] Compound B, 24 h at 37° C.
Method: The binding potencies of sGC compounds to the human recombinant sGC enzyme were determined in a Size Exclusion Chromatography (SEC) competition binding assay using [^3H] Compound B as the radioligand. [^3H] Compound B was prepared using a standardardized tritium exchange procedure. The parent (non-labeled) molecule was first iodinated then a Pd-catalyzed iodine to tritium exchange provided the labeled compound.
Method: The binding buffer was composed of 50 mM triethanolamine pH 7.4, 3 mM MgCl2, 0.025% BSA, 2 mM dithiothreitol (DTT), 300 μM DETA/NO and 400 μM GTP. Assays were conducted in 96-well plates in a total volume of 200 μL. Recombinant human sGC protein (40 ng) was incubated with 1.6 nM [^3H] Compound B for 24 h at 37° C. in the presence and absence of various concentrations of sGC testing compounds delivered as DMSO solutions to give a total of 1% organic solvent content. Non-specific binding was defined by competition with 1 μM of Compound B. After the incubation period, the binding mixtures were loaded onto the gel-filtration plate (ThermoFischer Cat. No. 89808) pre-equilibrated with binding buffer and spun at 1000×g for 3 min at 4° C. on a Bench top centrifuge. The collected eluates in White Frame Clear Well Isoplates (Perkin Elmer Cat #6005040) received 100 μl of UltimaGold scintillation cocktail. The sealed plates were shaken vigorously and span, and counted after 6 hs with a Wallac Microbeta TriLux 1450 LSC & Luminescence Counter (Perkin Elmer). Data from competition experiments were analyzed to determine Ki values using one site—fit Ki equation.

sGC α1/β1 heterodimer = sGC α1/β1 heterodimer (Homo sapiens (Human), UniProt Q02108+Q02153); assay: Cell-based sGC functional assay (CASA assay), cGMP by HTRF; conditions: CHO-K1/sGC cells; for Emax: CHO-K1, cGMP production as percentage of maximum of compound A (set to 100%), read-out: % Activation; for EC50: inflection point of cGMP production, 4P fit, read-out: IP
Description: Cell-Based sGC Functional Assay (Cyclic GMP Assay for sGC Activator: CASA Assay)
Soluble guanylate cyclase (sGC) is a heme-containing enzyme that converts GTP to secondary messenger cGMP. Increases in cGMP levels affect several physiological processes including vasorelaxation through multiple downstream pathways. […] Heme-dependent activators (HDAs) preferentially target sGC containing a ferrous heme group. To determine the effect of sGC activators on enzyme activity, the CASA assay was developed to monitor the generation of cGMP in a cell line that stably expresses the heterodimeric sGC protein.
A CHO-K1 cell line stably expressing the sGC α1/β1 heterodimer was generated using a standard transfection protocol. The cDNA's encoding human sGC α1 and β1 were cloned in pIRES hyg and pIRES neo respectively using standard molecular biology techniques. The plasmids pIRES hyg and pIRES neo plasmids were obtained from Clontech. CHO-K1 cells were transfected with plasmids pIREShyg-hsGCα1 and pIRESneo-hsGCβ1 simultaneously using FUGENE reagent. Clones that stably express both subunits were selected with hygromycin and neomycin for ˜2 weeks. The clone chosen for the assay was designated CHO-K1/sGC. CHO-K1/sGC cells were maintained in F-K12 medium containing 10% heat-inactivated Fetal Bovine Serum (FBS), 100 μg/mL penicillin/streptomycin, 0.5 mg/mL hygromycin and 0.25 mg/mL G418. The cells were then cryopreserved in liquid nitrogen. On the day of the assay, the cells were thawed and resuspended in EBSS Assay Buffer (Sigma, E3024) supplemented with 5 mM MgCl2, 10 mM HEPES (4-(2-hydroxyethyl)piperazine-1-ethanesulfonic acid) and 0.05% BSA (bovine serum albumin) and cell density was then adjusted to 2.25×10^5/mL with EAB. IBMX (3-isobutyl-1-methylxanthin, 0.5 mM) was added to inhibit degradation of cGMP. Compounds were diluted from DMSO stock solutions and added to the assay at a final DMSO concentration of 2.5%. Cells were pre-incubated in the presence and absence of 1 μM of Diethylenetriamine/nitric oxide adduct (DETA-NO; Sigma, 17018) for 30 min at 25° C. Compounds were subsequently added and incubated for 1 hr at 37° C. At the end of the incubation period, the reaction was terminated and the cells were lysed with the detection reagents from Cisbio Kits. The level of intracellular cGMP was determined using an HTRF-based assay kit (CisBio, 62GM2PEC), which detects the displacement of a fluorescence labeled cGMP from its specific antibody. The cGMP produced by test compounds was directly compared to the maximum cGMP production (this value was set to equal 100% activation) of the published sGC compound A (Example 1 in WO 2010/065275, published Jun. 10, 2010).
The test compounds' activities were then expressed as a percentage of compound A, the standard in every experiment. This percent activation was calculated either in the presence or absence of DETA-NO which was then plotted. Inflection points (IP) and maximum fold induction was derived using Abase analysis software for 4P fit.

Ki [1] [nM] | Emax (sGC α1/β1 heterodimer) [%] | EC50 (sGC α1/β1 heterodimer) [nM] | % Activation (sGC α1/β1 heterodimer; cGMP production as percentage of maximum of compound A (set to 100%)) [%] | SMILES
6.01 | 81 | 694 | – | CC1(c2ncc(Cl)c(O)c2Cl)C(=O)Nc2nc(-c3cn4ccnc4c(Cc4cc(F)cc(F)c4)n3)nc(N)c21 (stereo not drawn) [Example 73-A, 4-Amino-5-(3,5-dichloro-4-hydroxypyridin-2-yl)-2-{8-[(3,5-difluorophenyl)methyl]imidazo[1,2-a]pyrazin-6-yl}-5-methyl-5,7-dihydro-6H-pyrrolo[2,3-d]pyrimidin-6-one]
4.01 | 103 | 966 | – | CC1(c2cccc(O)c2)C(=O)Nc2nc(-c3cn4ccnc4c(Cc4ccc(F)cc4)n3)nc(N3CCC(F)(F)CC3)c21 (stereo not drawn) [Example 135-B, 4-(4,4-Difluoropiperidin-1-yl)-2-{8-[(4-fluoro-phenyl)methyl]imidazo-[1,2-a]-pyrazin-6-yl}-5-(3-hydroxyphenyl)-5-methyl-5,7-dihydro-6H-pyrrolo[2,3-d]pyrimidin-6-one]
6.17 | 122 | 131 | – | CCCCc1nc(-c2nc(N)c3c(n2)NC(=O)C3(C)c2ccc(O)c(Cl)c2)cn2ncnc12 (stereo not drawn) [Example 74-B, 4-Amino-2-(8-butyl-[1,2,4]triazolo[1,5-a]pyrazin-6-yl)-5-(3-chloro-4-hydroxyphenyl)-5-methyl-5,7-dihydro-6H-pyrrolo[2,3-d]pyrimidin-6-one]
0.128 | 132 | 25 | – | CC1(c2cc(O)c(Cl)c(F)c2)C(=O)Nc2nc(-c3cn4ncnc4c(Cc4ccccc4F)n3)nc(N)c21 (stereo not drawn) [Example 10-B, 4-Amino-5-(4-chloro-3-fluoro-5-hydroxyphenyl)-2-{8-[(2-fluorophenyl)methyl]-[1,2,4]triazolo[1,5-a]pyrazin-6-yl}-5-methyl-5,7-dihydro-6H-pyrrolo[2,3-d]pyrimidin-6-one]
0.706 | 99 | 1350 | – | CC1(c2cc(O)c(Cl)cn2)C(=O)Nc2nc(-c3cn4ccnc4c(CC4CCCC4)n3)nc(N)c21 (stereo not drawn) [Example 141-B, 4-amino-5-(5-chloro-4-hydroxypyridin-2-yl)-2-(8-(cyclopentylmethyl)-imidazo[1,2-a]pyrazin-6-yl)-5-methyl-5,7-dihydro-6H-pyrrolo-[2,3-d]pyrimidin-6-one]
2.21 | 97 | 49 | – | CCCCc1nc(-c2nc(N)c3c(n2)NC(=O)C3(C)c2ccc(F)c(O)c2)cn2ncnc12 (stereo not drawn) [Example 62-B, 4-Amino-2-(8-butyl-[1,2,4]triazolo[1,5-a]pyrazin-6-yl)-5-(4-fluoro-3-hydroxyphenyl)-5-methyl-5,7-dihydro-6H-pyrrolo[2,3-d]pyrimidin-6-one]
0.241 | 88 | 752 | – | CC1(c2ccc(O)c(F)c2)C(=O)Nc2nc(-c3cn4ccnc4c(Cc4ccccc4F)n3)nc(N)c21 (stereo not drawn) [Example 24-B, 4-Amino-5-(3-fluoro-4-hydroxyphenyl)-2-{8-[(2-fluorophenyl)methyl]imidazo[1,2-a]pyrazin-6-yl}-5-methyl-5,7-dihydro-6H-pyrrolo[2,3-d]pyrimidin-6-one]
0.427 | 117 | 69 | – | CC1(c2ccc(F)c(O)c2)C(=O)Nc2nc(-c3cn4ccnc4c(Cc4ccc(F)cc4)n3)nc(N)c21 (stereo not drawn) [Example 37-B, 4-Amino-5-(4-fluoro-3-hydroxyphenyl)-2-{8-[(4-fluorophenyl)methyl]imidazo[1,2-a]pyrazin-6-yl}-5-methyl-5,7-dihydro-6H-pyrrolo[2,3-d]pyrimidin-6-one]
3.47 | 108 | 1380 | – | CC1(c2ccc(Cl)c(O)c2Cl)C(=O)Nc2nc(-c3cn4ccnc4c(CC4CCCCC4)n3)nc(N)c21 (stereo not drawn) [Example 69-A, 4-Amino-2-(8-(cyclohexylmethyl)imidazo[1,2-a]pyrazin-6-yl)-5-(2,4-dichloro-3-hydroxyphenyl)-5-methyl-5,7-dihydro-6H-pyrrolo[2,3-d]pyrimidin-6-one]
0.691 | 117 | 893 | – | CC1(c2ccc(C(F)(F)F)c(O)c2)C(=O)Nc2nc(-c3cn4ccnc4c(Cc4cc(F)cc(F)c4)n3)nc(N)c21 (stereo not drawn) [Example 46-B, 4-Amino-2-{8-[(3,5-difluorophenyl)methyl]imidazo[1,2-a]pyrazin-6-yl}-5-(3-hydroxy-4-(trifluoromethyl)phenyl)-5-methyl-5,7-dihydro-6H-pyrrolo[2,3-d]pyrimidin-6-one]
4.95 | 112 | 137 | – | CC1(c2ccc(F)c(O)c2)C(=O)Nc2nc(-c3cn4ncnc4c(CCC(F)(F)C(F)(F)F)n3)nc(N)c21 (racemic) [Example 114-B, 4-Amino-5-(4-fluoro-3-hydroxyphenyl)-5-methyl-2-(8-(3,3,4,4,4-pentafluorobutyl)-[1,2,4]-triazolo[1,5-a]pyrazin-6-yl)-5,7-dihydro-6H-pyrrolo(2,3-d]pyrimidin-6-one]
1.78 | 112 | 16 | – | CC1(c2cc(Cl)c(O)c(Cl)c2)C(=O)Nc2nc(-c3cn4ncnc4c(CC4CCCCC4)n3)nc(N)c21 (stereo not drawn) [Example 112-B, 4-Amino-2-(8-(cyclo-hexylmethyl)-[1,2,4]-triazolo[1,5-a]pyrazin-6-yl)-5-(3,5-dichloro-4-hydroxyphenyl)-5-methyl-5,7-dihydro-6H-pyrrolo[2,3-d]pyrimidin-6-one]
1.08 | – | 771 | 144 | CC1(c2cc(Cl)c(O)cn2)C(=O)Nc2nc(-c3cn4ccnc4c(Cc4ccccc4F)n3)nc(N)c21 (single isomer, unassigned) [Example 53-B, 4-Amino-5-(4-chloro-5-hydroxypyridin-2-yl)-2-{8-[(2-fluorophenyl)methyl]imidazo[1,2-a]pyrazin-6-yl}-5-methyl-5,7-dihydro-6H-pyrrolo[2,3-d]pyrimidin-6-one]
0.382 | 120 | 369 | – | CC1(c2cccc(O)c2)C(=O)Nc2nc(-c3cn4ccnc4c(Cc4cccc(F)c4)n3)nc(N)c21 (stereo not drawn) [Example 121-B, 4-Amino-2-{8-[(3-fluorophenyl)methyl]imidazo[1,2-a]pyrazin-6-yl}-5-(3-hydroxyphenyl)-5-methyl-5,7-dihydro-6H-pyrrolo[2,3-d]pyrimidin-6-one]
2 | 84 | 1890 | – | CC1(c2ccc(F)c(O)c2)C(=O)Nc2nc(-c3cn4ccnc4c(CCC(F)(F)C(F)(F)F)n3)nc(N3CC(O)(C(F)(F)F)C3)c21 (stereo not drawn) [Example 129-B, 5-(4-Fluoro-3-hydroxyphenyl)-4-(3-hydroxy-3-(trifluoromethyl)azetidin-1-yl)-5-methyl-2-(8-(3,3,4,4,4-pentafluorobutyl)imidazo[1,2-a]pyrazin-6-yl)-5,7-dihydro-6H-pyrrolo[2,3-d]pyrimidin-6-one]
